Calls of active or inactive are those of the source. No cut-off for these calls is given here.
Key:
Mus musculus = experiment: Increase in platelet levels in mouse expressing human transmembrane site of TPO receptor administered as po bid for 2 weeks measured after 3 days to 3 weeks post initiation of initial dose relative to vehicle-treated control; format: functional, organism-based
[1] = biological target: T1, Thrombopoietin receptor (Homo sapiens) (UniProt P40238); experiment: Agonist activity at human TPO receptor expressed in mouse BaF-B03 cells assessed as induction of cell proliferation after 20 hrs by WST-1 assay; format: cell-based
T1 sequence (whole entry): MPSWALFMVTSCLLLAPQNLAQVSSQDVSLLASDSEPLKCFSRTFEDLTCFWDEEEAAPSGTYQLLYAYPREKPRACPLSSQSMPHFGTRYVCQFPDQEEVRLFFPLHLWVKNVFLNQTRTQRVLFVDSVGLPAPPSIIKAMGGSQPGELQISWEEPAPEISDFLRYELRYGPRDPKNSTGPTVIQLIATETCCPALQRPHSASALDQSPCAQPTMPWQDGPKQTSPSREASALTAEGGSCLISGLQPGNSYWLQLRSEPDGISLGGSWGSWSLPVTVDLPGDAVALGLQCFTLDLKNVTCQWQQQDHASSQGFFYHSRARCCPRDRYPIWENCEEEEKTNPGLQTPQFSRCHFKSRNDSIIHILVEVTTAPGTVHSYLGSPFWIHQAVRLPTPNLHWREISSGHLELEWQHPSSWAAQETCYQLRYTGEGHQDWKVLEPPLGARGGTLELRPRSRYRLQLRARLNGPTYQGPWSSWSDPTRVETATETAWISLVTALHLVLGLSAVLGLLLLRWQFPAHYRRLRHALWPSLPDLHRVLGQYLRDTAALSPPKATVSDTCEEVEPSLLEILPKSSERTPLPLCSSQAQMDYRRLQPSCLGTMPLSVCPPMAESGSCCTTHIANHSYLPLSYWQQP

ED50 [1] [nM]	SMILES	Activity (Mus musculus)
–	CCCO[C@H](c1cccc(-c2csc(NC(=O)c3cc(Cl)c(/C=C(\C)C(=O)O)c(Cl)c3)n2)c1OC)C(C)(C)C	Active
3.09	CCCCCC[C@@H](OC)c1cccc(-c2csc(NC(=O)c3cc(Cl)c(/C=C(\C)C(=O)O)c(Cl)c3)n2)c1OC	Active
1.4	CCCCCCO[C@H](C)c1cccc(-c2csc(NC(=O)c3cc(Cl)c(/C=C(\C)C(=O)O)c(Cl)c3)n2)c1OC	Active
1.09	CCCCCCO[C@@H](C)c1cccc(-c2csc(NC(=O)c3cc(Cl)c(/C=C(\C)C(=O)O)c(Cl)c3)n2)c1OC	Active
2.08	CCCCCC[C@H](OC)c1cccc(-c2csc(NC(=O)c3cc(Cl)c(/C=C(\C)C(=O)O)c(Cl)c3)n2)c1OC	Active
